These results are taken from patent US8551711B2, “Screening method of glutathione-increasing substance” (Teikyo University, priority 2006, dated 2013).

For assay [1], the system named is glutathione in hippocampus. Briefly: Amount of glutathione in mouse hippocampus (GSH reductase/DTNB, absorbance at 412 nm). Type of assay: in vivo. Particulars: administered in cerebral ventricle, corrected by tissue weight, vs control. From the text: FIG. 5 Results obtained by quantitatively determining the amount of glutathione in hippocampus under the conditions of FIGS. 3 and 4. The amount of glutathione of hippocampus decreased by the intraventricular administration of EAAC1 siRNA, whereas the amount of glutathione increased by GTRAP3-18 siRNA.
FIG. 7 The amount of intracellular glutathione (GSH) was quantitatively determined under the conditions of FIG. 6. Glutathione decreased by MeβCD.
Next, after decreasing the amount of GTRAP3-18 or EAAC1 in the hippocampus cell, the amount of glutathione was assayed. That is, an extract from the hippocampus tissue was mixed with a reaction solution containing EDTA (ethylenediaminetetraacetic acid), GSH reductase, DTNB (5,5′-ditiobis-nitrobenzoic acid) and NADPH, and an absorbance at 412 nm was measured. After determining a concentration by using an absorbance of a GSH standard solution, it was corrected by a tissue weight.

Assay [2] deals with GTRAP3-18 protein. Briefly: Western blot of GTRAP3-18 protein expression in HEK293 cell. The settings on record: ratio to actin, oligonucleotide transiently introduced or 250 μM MeβCD, vs control (sense oligonucleotide). The class given is cell-based. How it is done: (§1) FIG. 1 Results obtained by examining influences of a GTRAP3-18 antisense oligonucleotide and methyl-β-cyclodextrin (MeβCD) against the expression of a GTRAP3-18 protein of an HEK293 cell. A GTRAP3-18 sense oligonucleotide (GTRAP3-18(S)) or an antisense oligonucleotide (GTRAP3-18(As)) was introduced into an HEK293 cell, or 250 μM of methyl-β-cyclodextrin (MeβCD) was made to act thereon. A) After homogenizing the cell, western blot was performed using an anti-EAAC1 antibody, an anti-GTRAP3-18 antibody and an anti-actin antibody. B) The results of the western blot were digitalized and indicated in terms of a ratio to actin. GTRAP3-18 decreased by the introduction of the GTRAP3-18 antisense oligonucleotide, and GTRAP3-18 increased by MeβCD.
(§2) By transiently introducing an antisense oligonucleotide of GTRAP3-18 into an HEK293 cell, the amount of GTRAP3-18 in the cell was decreased (FIG. 1). Next, the amount of intracellular glutathione was assayed by ThioGlo-1 (manufactured by Calbiochem). […] of the amount of GTRAP3-18 was confirmed by a western blot method. A cell into which a sense oligonucleotide had been introduced was used as a control group.
On the other hand, it was confirmed by a western blot method that when methyl-β-cyclodextrin (MeβCD) was added to HEK293 cell, the amount of GTRAP3-18 increased as compared with the control group (FIG. 1).
(In general: A western blot detects proteins with antibodies after separation by electrophoresis.)

Assay [3] has as its system intracellular glutathione (GSH). The experiment in a line: Amount of intracellular glutathione in HEK293 cell assayed by ThioGlo-1. Type of assay: cell-based. Particulars: conditions of FIG. 1, vs control group. The procedure:
FIG. 2 The amount of intracellular glutathione (GSH) was quantitatively determined under the conditions of FIG. 1. Glutathione increased by the introduction of the GTRAP3-18 antisense oligonucleotide, and glutathione decreased by MeβCD.
as §2

The subject of assay [4] is GTRAP3-18 protein. Briefly: Western blot of GTRAP3-18 protein in mouse hippocampus after intraventricular administration. Type of assay: in vivo. Particulars: administered in cerebral ventricle (siRNA 10 μg/h, after one week), vs control (buffer). The procedure:
FIG. 3 Results obtained by examining influences of GTRAP3-18 siRNA against the expression of a GTRAP3-18 protein of a mouse hippocampus cell. A) After homogenizing the cell, western blot was performed using an anti-GTRAP3-18 antibody. B) The results of the western blot were digitalized and indicated in terms of a ratio to the buffer administration. The amount of GTRAP3-18 decreased by the introduction of GTRAP3-18 siRNA.
(§3) FIG. 6 Results obtained by examining influences of methyl-β-cyclodextrin (MeβCD) against the expression of a GTRAP3-18 protein of mouse hippocampus. A) After homogenizing the cell, western blot was performed using an anti-EAAC1 antibody, an anti-GTRAP3-18 antibody and an anti-actin antibody. B) The results of the western blot were digitalized and indicated in terms of a ratio to actin. GTRAP3-18 increased by MeβCD.
(§4) siRNA against GTRAP3-18 was administered (10 μg/h) in a cerebral ventricle of a mouse.
On the other hand, when methyl-β-cyclodextrin (MeβCD) was administered in a cerebral ventricle of a mouse, the amount of GTRAP3-18 in the hippocampus cell increased as compared with the control group (FIG. 6).

Assay [5] has as its system EAAC1. Briefly: Western blot of EAAC1 amount in HEK293 cell. The settings on record: ratio to actin, oligonucleotide introduced or 250 μM MeβCD. Type of assay: cell-based. The procedure:
as §1

Assay [6] concerns EAAC1 protein. The experiment in a line: Western blot of EAAC1 protein in mouse hippocampus after intraventricular administration. The class given is in vivo. The settings on record: administered in cerebral ventricle, vs control (buffer). The procedure:
FIG. 4 Results obtained by examining influences of EAAC1 siRNA against the expression of an EAAC1 protein of a mouse hippocampus cell. A) After homogenizing the cell, western blot was performed using an anti-EAAC1 antibody. B) The results of the western blot were digitalized and indicated in terms of a ratio to the buffer administration. The amount of EAAC1 decreased by the introduction of EAAC1 siRNA.
as §3, §4

The mark [7] stands for this setting: listed as methyl-β-cyclodextrin (MeβCD).

Take methyl-β-cyclodextrin [MeβCD]: the “amount of glutathione in hippocampus” value in assay [1] is on record as “decreased”; in assay [1] (setting [7]), “significantly decreased”. For the same substance, the “amount of GTRAP3-18 in the cell” value in assay [2] is listed as “increased”. The figures for the “amount of intracellular glutathione (GSH)” value in assay [3] and in assay [3] (setting [7]) were “decreased” and “significantly decreased”, respectively. In addition, the “amount of GTRAP3-18 in hippocampus cell” value in assay [4] is listed as “increased”. Also, in assay [5], the “amount of EAAC1” value is reported as “did not change”. Besides, the “amount of EAAC1 in hippocampus cell” value in assay [6] was “did not change”.
